Laboratory results as given in ChEMBL document CHEMBL1121563, “8-Hydroxyanthracyclinones from epsilon-rhodomycinone” (1980).
Calls of active or inactive are those of the source. The calls are words filed in the database; no cut-off is given here.

Experiments:
[1] = system: Escherichia coli; experiment: Compound is evaluated for lambda-phage induction activity in Escherichia coli (dose at 12.5 ug/mL); assay type: functional
[2] = system: Escherichia coli; experiment: Compound is evaluated for lambda-phage induction activity in Escherichia coli (dose at 50 ug/mL); assay type: functional
[3] = system: Escherichia coli; experiment: Compound is evaluated for lambda-phage induction activity in Escherichia coli (dose at 6.2 ug/mL); assay type: functional
[4] = system: Escherichia coli; experiment: Compound is evaluated for lambda-phage induction activity in Escherichia coli (dose at 25 ug/mL); assay type: functional
[5] = system: Escherichia coli; experiment: Compound is evaluated for lambda-phage induction activity in Escherichia coli (dose at 3.1 ug/mL); assay type: functional
[6] = system: Escherichia coli; experiment: Compound is evaluated for lambda-phage induction activity in Escherichia coli (dose at 0.8 ug/mL); assay type: functional
[7] = system: Bacillus subtilis; experiment: Compound was tested for its lambda-phage induction activity against Bacillus subtilis in a disk plate assay at concentration of dose of 0.8 ug/mL; Active; assay type: functional, organism-based
[8] = system: Escherichia coli; experiment: Compound is evaluated for lambda-phage induction activity in Escherichia coli (dose at 1.6 ug/mL); assay type: functional
[9] = system: Escherichia coli; experiment: Compound is evaluated for lambda-phage induction activity in Escherichia coli (dose at 6.2 ug/mL); Toxic to culture; assay type: functional
[10] = system: Escherichia coli; experiment: Compound is evaluated for lambda-phage induction activity in Escherichia coli (dose at 50 ug/mL); Toxic to culture; assay type: functional

SMILES	Activity [1]	Activity [2]	Activity [3]	Activity [4]	Activity [5]	Activity [6]	Activity [7]	Activity [8]	Activity [9]	Activity [10]
CC[C@]12O[C@H]1Cc1c(O)c3c(c(O)c1[C@H]2C(=O)OC)C(=O)c1cccc(O)c1C3=O	1.5	2.9	1.3	1.9	1.2					
CC(=O)[C@]1(O)Cc2c(O)c3c(c(O)c2[C@@H](O[C@H]2C[C@H](N)[C@H](O)[C@H](C)O2)C1)C(=O)c1c(O)cccc1C3=O [CARUBICIN]			7		6.2	2.2	Active	3		
COc1cccc2c1C(=O)c1c(O)c3c(c(O)c1C2=O)C[C@@](O)(C(C)=O)C[C@@H]3O[C@H]1C[C@H](N)[C@H](O)[C@H](C)O1 [DAUNORUBICIN]					11.9	3.1	Active	5.3	11.1	
CC[C@H]1CCc2c(O)c3c(c(O)c2[C@H]1C(=O)OC)C(=O)c1cccc(O)c1C3=O	1.2	2.4	1.3	1.8	1					
CCC1=CCc2c(O)c3c(c(O)c2[C@H]1C(=O)OC)C(=O)c1cccc(O)c1C3=O	6	13.4	2.8	9.3						
CC[C@@]1(O)C[C@H](O)c2c(O)c3c(c(O)c2[C@H]1C(=O)OC)C(=O)c1cccc(O)c1C3=O	1.5			1.8						2.9
CC[C@@]12O[C@@H]1Cc1c(O)c3c(c(O)c1[C@H]2C(=O)OC)C(=O)c1cccc(O)c1C3=O	1.1	3	1.4	2	1.2					
